Results reported in US11458138B2 (Novartis AG, priority 2017, dated 2022).

Tests used:
LATS1 = LATS1 (Homo sapiens (Human), UniProt O95835); assay: LATS1 biochemical assay (Table 1A, Compound Examples 1-290; method in the earlier part)
[1] = molecular target: Human LATS2 kinase domain protein (Homo sapiens (Human), UniProt Q9NRM7); assay: LATS2 Biochemical Caliper Assay (Compound Examples 1-290); conditions: 400 micromolar ATP
Summary of the method: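 LATS2 catalytic domain (aa 553-1088), co-purified with His-tagged MOBKL1A, reacted with compound for 3 h at 25° C before EDTA (25 mM) stop. Substrate and product separated by microfluidic electrophoresis (Caliper LabChip 3000) and quantified by fluorescence intensity.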

[2] = system: YAP nuclear translocation in HaCaT cells; assay: YAP Translocation Assay (HaCaT Cells); type: cell-based, human; conditions: Homo sapiens, 24 hours
Summary of the method: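 HaCaT cells (20,000/well) in DMEM + 10% FBS were plated overnight at 37° C, then exposed to compound for 24 h at 37° C. Cells were fixed with PFA, permeabilized with 0.1% Triton/1.5% BSA and imaged by high-content imaging.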

[3] = system: Phospho-YAP (Ser127) in JHH-5 cells; assay: pYAP HTRF Assay (JHH-5 cells); type: cell-based; conditions: 2 hours
Summary of the method: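 Phospho-YAP read by HTRF (665 nm/620 nm ×10000) in lysates after overnight 18 h antibody incubation at room temperature. Compound treatment lasted 2 h at 37 °C, on JHH-5 cells plated 24 h earlier at 24000 per well in William's E medium with 10% FBS.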

[4] = system: human limbal stem cells (LSCs); assay: Human limbal stem cell population expansion: expansion factor; type: cell-based; conditions: 10 micromolar, XVIVO15 medium, two passages, ratio of expanded to seeded cells
Summary of the method: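 Corneal-derived cells cultured at 37° C, 5% CO2, passaged at 90-100% confluence. One culture set fixed in 4% PFA after attachment (typically 24 h), a second after two passages. Nuclei counted by confocal microscopy; expansion factor = expanded population/seeded population.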

[5] = system: human limbal stem cells (LSCs); assay: Human limbal stem cell population expansion: percentage of p63alpha-positive cells; type: cell-based; conditions: 10 micromolar, XVIVO15 medium
Summary of the method: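 Human limbal cells cultured at 37° C, 5% CO2 and PFA-fixed either ~24 h after plating or after two passages. p63alpha immunostained and nuclei counterstained with Sytox Orange; value is percentage of Sytox-positive nuclei also p63alpha-positive.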

[6] = system: human corneal endothelial cells (CECs); assay: Human corneal endothelial cell population expansion: fold cell expansion; type: cell-based; conditions: 10 micromolar compound, X-VIVO15 medium, 10 days, ratio of expanded to seeded cells
Summary of the method: (§1)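 Nuclei were stained with 0.5 micromolar Sytox Orange after Triton X-100 permeabilisation and counted per surface area under epifluorescence to give cell density. This was done on cultures fixed in 4% PFA just after attachment (~24 h) and on cultures fixed 10 days later. The ratio of expanded to seeded cells gives fold expansion.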

[7] = system: human corneal endothelial cells (CECs); assay: Human corneal endothelial cell population expansion: endothelial cell density in vitro; type: cell-based; conditions: 10 micromolar compound, X-VIVO15 medium, 10 days
Summary of the method: as §1

Human LATS2 kinase domain protein, sequence (Q9NRM7 553-1088): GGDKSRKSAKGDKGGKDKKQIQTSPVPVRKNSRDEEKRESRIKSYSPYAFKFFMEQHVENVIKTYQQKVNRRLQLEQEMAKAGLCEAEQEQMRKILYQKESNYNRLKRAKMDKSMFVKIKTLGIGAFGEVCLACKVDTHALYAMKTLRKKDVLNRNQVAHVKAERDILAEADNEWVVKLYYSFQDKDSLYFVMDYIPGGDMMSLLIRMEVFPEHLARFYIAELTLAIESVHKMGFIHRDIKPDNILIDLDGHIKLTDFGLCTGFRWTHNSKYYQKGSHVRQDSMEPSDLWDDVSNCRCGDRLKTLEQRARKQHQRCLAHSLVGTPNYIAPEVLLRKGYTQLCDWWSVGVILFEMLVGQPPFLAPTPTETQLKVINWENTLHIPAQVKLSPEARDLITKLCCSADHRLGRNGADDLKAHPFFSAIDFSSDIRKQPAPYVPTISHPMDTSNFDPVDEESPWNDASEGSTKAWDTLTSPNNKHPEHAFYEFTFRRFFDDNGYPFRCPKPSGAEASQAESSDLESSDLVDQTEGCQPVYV
Human LATS2 kinase domain protein, sequence (Q7L9L4 whole entry partner, the tested form may be a part): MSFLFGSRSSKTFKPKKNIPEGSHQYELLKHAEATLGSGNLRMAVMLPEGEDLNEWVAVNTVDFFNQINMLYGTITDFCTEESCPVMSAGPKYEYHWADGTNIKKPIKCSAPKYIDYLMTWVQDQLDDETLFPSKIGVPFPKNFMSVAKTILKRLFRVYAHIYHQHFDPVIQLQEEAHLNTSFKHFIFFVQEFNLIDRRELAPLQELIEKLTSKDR
LATS1, sequence (O95835 whole entry, looked up, the tested form may be a part): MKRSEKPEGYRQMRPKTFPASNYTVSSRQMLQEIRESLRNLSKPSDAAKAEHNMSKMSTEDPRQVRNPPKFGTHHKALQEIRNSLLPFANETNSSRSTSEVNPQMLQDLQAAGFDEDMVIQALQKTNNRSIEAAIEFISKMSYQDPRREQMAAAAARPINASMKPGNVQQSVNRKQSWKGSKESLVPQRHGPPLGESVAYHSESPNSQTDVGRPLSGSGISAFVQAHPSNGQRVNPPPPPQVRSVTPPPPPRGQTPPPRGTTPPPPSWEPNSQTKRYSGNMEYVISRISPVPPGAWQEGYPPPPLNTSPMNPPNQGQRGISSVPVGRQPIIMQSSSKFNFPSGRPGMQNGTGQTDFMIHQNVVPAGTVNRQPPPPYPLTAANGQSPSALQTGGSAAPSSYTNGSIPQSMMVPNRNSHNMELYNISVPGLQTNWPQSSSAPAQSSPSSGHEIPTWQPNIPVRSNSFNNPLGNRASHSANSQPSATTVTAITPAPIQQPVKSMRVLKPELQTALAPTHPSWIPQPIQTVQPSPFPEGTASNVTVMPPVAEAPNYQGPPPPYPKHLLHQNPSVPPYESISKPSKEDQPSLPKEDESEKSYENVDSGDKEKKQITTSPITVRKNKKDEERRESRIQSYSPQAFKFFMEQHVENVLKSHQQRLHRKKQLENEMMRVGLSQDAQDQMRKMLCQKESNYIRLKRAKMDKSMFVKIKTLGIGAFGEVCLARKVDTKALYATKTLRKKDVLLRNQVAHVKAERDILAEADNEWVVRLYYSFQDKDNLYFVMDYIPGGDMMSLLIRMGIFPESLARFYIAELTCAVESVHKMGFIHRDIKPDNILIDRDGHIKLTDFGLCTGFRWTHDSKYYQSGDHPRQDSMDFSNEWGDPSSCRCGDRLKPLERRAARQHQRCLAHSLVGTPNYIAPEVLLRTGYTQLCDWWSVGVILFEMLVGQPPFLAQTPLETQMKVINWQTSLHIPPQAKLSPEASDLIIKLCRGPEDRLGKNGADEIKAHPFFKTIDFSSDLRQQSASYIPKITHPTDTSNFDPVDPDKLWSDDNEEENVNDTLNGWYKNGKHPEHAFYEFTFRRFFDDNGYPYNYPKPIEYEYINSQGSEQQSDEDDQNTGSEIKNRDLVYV
LATS1, sequence (Q7L9L4 whole entry partner, looked up, the tested form may be a part): as the sequence (Q7L9L4 whole entry partner, the tested form may be a part) above

SMILES	IC50 (LATS1)	IC50 [1]	EC50 [2]	IC50 [3]	Expansion factor [4]	Percentage of p63a-positive cells [5]	Expansion factor (Fold Cell expansion) [6]	Endothelial Cell density in vitro [7]
CC(C)(C)Nc1cc(-c2ccncc2)nc2cnccc12 [Example 261, N-(tert-butyl)-2-(pyridin-4-yl)-1,7-naphthyridin-4-amine]	1 nM	4 nM	1220 nM	600 nM	1717	93%	461	4308 cells/mm^2
Cc1n[nH]cc1-c1nc(NC2(C)CC2)c2ccncc2n1 [Example 133, 2-(3-methyl-1H-pyrazol-4-yl)-N-(1-methylcyclopropyl)pyrido[3,4-d]pyrimidin-4-amine]	2 nM	4 nM	1670 nM	1700 nM	1205	89%	273	2028 cells/mm^2
CCCNc1nc(-c2ccncc2)nc2cnccc12 [Example 14, N-propyl-2-(pyridin-4-yl)pyrido[3,4-d]pyrimidin-4-amine]	2 nM	50 nM	4250 nM	> 10000 nM	1423	93%	337	3271 cells/mm^2
CC(C)(O)CC(C)(C)Nc1nc(-c2ccncc2)nc2cnccc12 [Example 49, 2,4-dimethyl-4-{[2-(pyridin-4-yl)pyrido[3,4-d]pyrimidin-4-yl]amino}pentan-2-ol]	1 nM	21 nM	1170 nM	1600 nM	2029	92%	426	3873 cells/mm^2
c1cc(-c2nc(NC3CCCC3)c3ccncc3n2)ccn1 [Example 65, N-cyclopentyl-2-(pyridin-4-yl)pyrido[3,4-d]pyrimidin-4-amine]	2 nM	30 nM	1990 nM	5800 nM	1048	87%	203	1702 cells/mm^2
